36 molecules from US12479843B2, “Spiro ring-containing quinazoline compounds” (WIGEN BIOMEDICINE TECHNOLOGY (SHANGHAI) CO., LTD., priority 2019, dated 2025) can be followed below.

Assay [1] has as its system H358 cells. The assay is described as follows: Antiproliferative activity against H358 cells (Cell Titer Glow, ultra-low attachment plate). The following applies: Homo sapiens, NCI-H358, 72 h, 96-well ultra-low attachment plate, three days after addition of compound, Cell Titer Glow. The format is cell-based. As to the method:
2500 H358 cells were seeded in a 96-well ultra-low attachment plate (corning, 7007). After one day of growth, a serially diluted compound (a maximum concentration of 5 μM, 5-fold dilution, a total of five doses) was added. Three days after the addition of the compound, Cell Titer Glow (Promega, G9681) was added to evaluate pellet growth, and the IC50 value was calculated.

The subject of assay [2] is pERK level in H358 cells. As to the kind of experiment: pERK and ERK protein content assay in H358 cells (ELISA). The format is cell-based. The settings on record: Homo sapiens, NCI-H358, compound 1 μM, 24 h, pERK/ERK ratio compared with DMSO group, read-out: Inhibition rate (%) of pERK level. As to the method: H358 cells were seeded in a 24-well plate. After one day of growth, a test compound (at a concentration of 1 μM) was added. After 24 h of action of the compound, the cells were lysed, and the cell lysate was transferred to a 96-well ELISA plate. The levels of pERK and ERK in the lysate were measured using an ELISA kit (abcam 176660). The ratio of pERK to ERK was calculated and compared with that of the DMSO group, and the percentage of inhibition of pERK activity by the compound was calculated.

Molecules are shown by their SMILES. A value given as a limit tells only on which side of the number the result lay.

The molecule `C=C(F)C(=O)N1CC2(CCN(c3nc(N4CC(N5CCOCC5)C4)nc4c(OCC(F)(F)F)c(-c5c(C)ccc6[nH]ncc56)c(C5CC5)cc34)CC2)C1` [Compound 147] returned an IC50 in assay [1] below 300 nM. Further, the inhibition at 1 µM in assay [2] is above 90%.
The molecule `C=CC(=O)N1CC2(CCN(c3nc(N4CC(N5CC[C@@H](C)C5)C4)nc4c(OCC)c(-c5c(C)ccc6[nH]ncc56)c(C5CC5)cc34)CC2)C1` [Compound 331] had an IC50 in assay [1] below 300 nM. For the same molecule, the inhibition at 1 µM in assay [2] is above 90%.
The like results for `C=C(F)C(=O)N1CC2(CCN(c3nc(N4CC5(CCN(CCOC)CC5)C4)nc4c(OCC(F)(F)F)c(-c5c(C)ccc6[nH]ncc56)c(C5CC5)cc34)CC2)C1` [Compound 92] were, in that order, below 300 nM and above 90%.
In assay [1], `C=CC(=O)N1CC2(CCN(c3nc(N4CC(N5C6CCC5CC6)C4)nc4c(OCC(F)(F)F)c(-c5c(C)c(C)cc6[nH]ncc56)c(C5CC5)cc34)CC2)C1` [Compound 326] yielded an IC50 below 300 nM. In assay [2], the inhibition at 1 µM is above 90%.
The like results for `C=CC(=O)N1CC2(CCN(c3nc(N4CC(N5CCCC5)C4)nc4c(OCC(F)(F)F)c(-c5c(C)ccc6[nH]ncc56)c(C(=C)C)cc34)CC2)C1` [Compound 321] were, in that order, below 300 nM and above 90%.
On the same counts, the results for `C=C(F)C(=O)N1CC2(CCN(c3nc(OC4CCN(CCOC)CC4)nc4c(OCC(F)(F)F)c(-c5c(C)ccc6cc[nH]c(=O)c56)c(C5CC5)cc34)CC2)C1` [Compound 42] are 300 to 1000 nM and above 90%.
The like results for `C=CC(=O)N1CC2(CCN(c3nc(N4CC[C@@H](N5CC[C@H](F)C5)C4)nc4c(OCC(F)(F)F)c(-c5c(C)ccc6[nH]ncc56)c(C5CC5)cc34)CC2)C1` [Compound 192] were, in that order, below 300 nM and above 90%.
In assay [1], `C=CC(=O)N1CC2(CCN(c3nc(OC4CC5(C4)CN(C4COC4)C5)nc4c(OCC(F)(F)F)c(-c5c(C)ccc6[nH]ncc56)c(C5CC5)cc34)CC2)C1` [Compound 127] gave an IC50 below 300 nM. The inhibition at 1 µM in assay [2] is above 90%.
On the same counts, the results for `C=CC(=O)N1CC2(CCN(c3nc(OC4CCN(CCOC)CC4)nc4c(OCC(F)(F)F)c(-c5c(O)ccc6ccccc56)c(C5CC5)cc34)CC2)C1` [Compound 59] are below 300 nM and above 90%.
The like results for `C=C(F)C(=O)N1CC2(CCN(c3nc(OC4CC5(CCN(C)CC5)C4)nc4c(OCC(F)(F)F)c(-c5c(C)ccc6[nH]ncc56)c(C5CC5)cc34)CC2)C1` [Compound 130] were, in that order, below 300 nM and above 90%.
On the same counts, the results for `C=CC(=O)N1CC2(CCN(c3nc(N4CCC(N5CCCC5)CC4)nc4c(OCC(F)(F)F)c(-c5c(C)ccc6[nH]ncc56)c(C5CC5)cc34)CC2)C1` [Compound 216] are below 300 nM and above 90%.
Turning to `C=CC(=O)N1CC2(CCN(c3nc(N4CC[C@H](N5CC[C@@H](C)C5)C4)nc4c(OCC(F)(F)F)c(-c5c(C)ccc6[nH]ncc56)c(C5CC5)cc34)CC2)C1` [Compound 300], in assay [1], the IC50 is below 300 nM. For the same molecule, in assay [2], the inhibition at 1 µM was above 90%.
In turn, `C=CC(=O)N1CC2(CCN(c3nc(OC4C(C)CS(=O)(=O)CC4C)nc4c(OCC(F)(F)F)c(-c5c(C)ccc6[nH]ncc56)c(C5CC5)cc34)CC2)C1` (stereo not drawn) [Compound 317] displayed an IC50 in assay [1] below 300 nM. The inhibition at 1 µM in assay [2] was above 90%.
In the case of `C=CC(=O)N1CC2(CCN(c3nc(N4CC(N5CC[C@@H](OC)C5)C4)nc4c(OCC(F)(F)F)c(-c5c(C)ccc6[nH]ncc56)c(C5CC5)cc34)CC2)C1` [Compound 175], in assay [1], the IC50 is below 300 nM. The inhibition at 1 µM in assay [2] was above 90%.
`C=C(F)C(=O)N1CC2(CCN(c3nc(N4CCC5(CCN(CCOC)CC5)CC4)nc4c(OCC(F)(F)F)c(-c5c(C)ccc6[nH]ncc56)c(C5CC5)cc34)CC2)C1` [Compound 108]: the IC50 in assay [1] is 300 to 1000 nM. For the same molecule, the inhibition at 1 µM in assay [2] was 50 to 90%.
On the same counts, the results for `C=CC(=O)N1CC2(CCN(c3nc(OC4CC5CC4CN5CCOC)nc4c(OCC(F)(F)F)c(-c5c(C)ccc6[nH]ncc56)c(C5CC5)cc34)CC2)C1` (stereo not drawn) [Compound 121] are below 300 nM and 50 to 90%.
For the molecule `C=CC(=O)N1CC2(CCN(c3nc(N4CC[C@@H](N(CC)CC)C4)nc4c(OCC(F)(F)F)c(-c5c(C)ccc6[nH]ncc56)c(C5CC5)cc34)CC2)C1` [Compound 190], the IC50 in assay [1] was below 300 nM. In addition, the inhibition at 1 µM in assay [2] is above 90%.
On the same counts, the results for `C=CC(=O)N1CC2(CCN(c3nc(OC4CCN(CCOC)CC4)nc4c(OCC(F)(F)F)c(-c5c(N)cccc5F)c(C5CC5)cc34)CC2)C1` [Compound 47] are below 300 nM and above 90%.
The like results for `C=CC(=O)N1CC2(CCN(c3nc(O[C@@H]4C[C@@H]5C[C@H]4CS5(=O)=O)nc4c(OCC(F)(F)F)c(-c5c(C)ccc6[nH]ncc56)c(C5CC5)cc34)CC2)C1` [Compound 315] were, in that order, below 300 nM and above 90%.
On the same counts, the results for `C=CC(=O)N1CC2(CCN(c3nc(N4CCC5(CCN(CCOC)C5)C4)nc4c(OCC(F)(F)F)c(-c5c(C)ccc6[nH]ncc56)c(C5CC5)cc34)CC2)C1` (stereo not drawn) [Compound 160] are below 300 nM and above 90%.
As to `C=CC(=O)N1CC2(CCN(c3nc(N(C)CCN4CC(C)C4)nc4c(OCC(F)(F)F)c(-c5c(C)ccc6[nH]ncc56)c(C5CC5)cc34)CC2)C1` [Compound 227], in assay [1], the IC50 is below 300 nM. For the same molecule, the inhibition at 1 µM in assay [2] is above 90%.
Regarding `C=C(F)C(=O)N1CC2(CCN(c3nc(N4CCC5(CN(C)C5)C4)nc4c(OCC(F)(F)F)c(-c5c(C)ccc6[nH]ncc56)c(C5CC5)cc34)CC2)C1` [Compound 98], the 50% inhibitory concentration (IC50) in assay [1] was in the range of 300 to 1000 nM. Further, the inhibition at 1 µM in assay [2] is 50 to 90%.
Regarding `C=CC(=O)N1CC2(CCN(c3nc(OC4CCN(CCOC)CC4)nc4c(OCC(F)(F)F)c(-c5c(F)ccc6[nH]cnc56)c(C5CC5)cc34)CC2)C1` [Compound 37], the half-maximal inhibitory concentration (IC50) in assay [1] lay within 300 to 1000 nM. In assay [2], the inhibition at 1 µM is 50 to 90%.
The like results for `C=CC(=O)N1CC2(CCN(c3nc(N4CC5(C4)[C@@H](OC)CCN5C)nc4c(OCC(F)(F)F)c(-c5c(C)ccc6[nH]ncc56)c(C5CC5)cc34)CC2)C1` [Compound 275] were, in that order, below 300 nM and above 90%.
`C=CC(=O)N1CC2(CCN(c3nc(N4CC[C@@H](N(C)C)C4)nc4c(OCC(F)(F)F)c(-c5c(C)ccc6[nH]ncc56)c(C5CC5)cc34)CC2)C1` [Compound 186] returned an IC50 in assay [1] below 300 nM. For the same molecule, the inhibition at 1 µM in assay [2] was above 90%.
The like results for `C=C(F)C(=O)N1CC2(CCN(c3nc(OC4CC5(C4)CN(C4COC4)C5)nc4c(OCC(F)(F)F)c(-c5c(C)ccc6[nH]ncc56)c(C5CC5)cc34)CC2)C1` [Compound 128] were, in that order, below 300 nM and above 90%.
On the same counts, the results for `C=CC(=O)N1CC2(CCN(c3nc(N4CC(N5CC[C@@H](C)C5)C4)nc4c(OCC(F)(F)F)c(-c5c(C)c(C)cc6[nH]ncc56)c(C5CC5)cc34)CC2)C1` [Compound 325] are below 300 nM and above 90%.
On the same counts, the results for `C=CC(=O)N1CC2(CCN(c3nc(N4CC(N5CCC5)C4)nc4c(OCC(F)(F)F)c(-c5c(C)ccc6[nH]ncc56)c(C5(C)CC5)cc34)CC2)C1` [Compound 322] are below 300 nM and above 90%.
In assay [1], `C=CC(=O)N1CC2(CCN(c3nc(N4CC(N5CC(CO)C5)C4)nc4c(OCC(F)(F)F)c(-c5c(C)ccc6[nH]ncc56)c(C5CC5)cc34)CC2)C1` [Compound 243] yielded an IC50 below 300 nM. Moreover, in assay [2], the inhibition at 1 µM was above 90%.
Regarding `C=CC(=O)N1CC2(CCN(c3nc(N4CCN(C5COC5)CC4)nc4c(OCC(F)(F)F)c(-c5c(C)ccc6[nH]ncc56)c(C5CC5)cc34)CC2)C1` [Compound 152], the IC50 in assay [1] was below 300 nM. Moreover, the inhibition at 1 µM in assay [2] is above 90%.
The like results for `C=CC(=O)N1CC2(CCN(c3nc(N4CC[C@H](N5CCCCC5)C4)nc4c(OCC(F)(F)F)c(-c5c(C)ccc6[nH]ncc56)c(C5CC5)cc34)CC2)C1` [Compound 207] were, in that order, below 300 nM and above 90%.
`C=CC(=O)N1CC2(CCN(c3nc(N4CC5(CCOCC5)C4)nc4c(OCC(F)(F)F)c(-c5c(C)ccc6[nH]ncc56)c(C5CC5)cc34)CC2)C1` [Compound 156] yielded an IC50 in assay [1] below 300 nM. For the same molecule, the inhibition at 1 µM in assay [2] was above 90%.
The like results for `C=CC(=O)N1CC2(CCN(c3nc(N4CCC(N5CCOCC5)CC4)nc4c(OCC(F)(F)F)c(-c5c(C)ccc6[nH]ncc56)c(C5CC5)cc34)CC2)C1` [Compound 148] were, in that order, 300 to 1000 nM and 50 to 90%.
On the same counts, the results for `C=CC(=O)N1CC2(CCN(c3nc(OC4CCN(CCOC)CC4)nc4c(OCC(F)(F)F)c(-c5c(C)ccc6[nH]ncc56)c(C)cc34)CC2)C1` [Compound 13] are 300 to 1000 nM and above 90%.
On the same counts, the results for `C=CC(=O)N1CC2(CCN(c3nc(N4CC(N5CC[C@H](F)C5)C4)nc4c(OCC(F)(F)F)c(-c5c(C)ccc6[nH]ncc56)c(C5CC5)cc34)CC2)C1` [Compound 172] are below 300 nM and above 90%.
With `C=C(F)C(=O)N1CC2(CCN(c3nc(N4CC5(CCN(C6COC6)CC5)C4)nc4c(OCC(F)(F)F)c(-c5c(C)ccc6[nH]ncc56)c(C5CC5)cc34)CC2)C1` [Compound 90], the IC50 in assay [1] was below 300 nM. Besides, the inhibition at 1 µM in assay [2] was above 90%.
